Measured values taken from paper PMC11224556, “Next-generation of BBQ analogues that selectively target breast cancer” (Frontiers in Chemistry, 2024).

How the values were obtained:
Type in all cases: cell-based, human
[1] = tested on: A2780 (ovary) cells; assay: MTT growth inhibition assay (72 h)
Text: (§1) Each BBQ analogue, 2-14 was screened for their growth inhibition ability (GI50) in a broad panel of cancer cell lines and a non-cancer breast cell line (MCF10A), using the MTT growth inhibition assay (Table 1) ([Baker et al., 2021b]). The cancer panel comprised HT29 (colorectal), U87 (brain), SJ-G2 (brain), A2780 (ovary), Du145 (prostate), BE2-C (neuronal), MIA (pancreas), H460 (lung, ER+), A431 (vulva, ER+ (estrogen receptor positive)), and a wide selection of breast cancer cell lines with varying receptor status including MCF-7 (ER + luminal A), T47D (ER/PR+ (progesterone receptor positive)luminal A), ZR-75-1 (ER/PR + luminal A), BT-474 (ER/PR/HER2+ luminal B), SKBR-3 (HER2+), MDA-MB-468, BT20, and MDA-MB-231 (basal, triple negative (TN) for ER, PR, and HER2).
(§2) Stock solutions were prepared as follows and stored as 20 mM DMSO solutions at −20 °C. All cell lines were cultured in a humidified atmosphere 5% CO2 at 37 °C. The cancer cell lines were maintained in Dulbecco’s modified Eagle’s medium (DMEM) (Trace Biosciences, Australia) supplemented with 10% foetal bovine serum (FBS), 10 mM sodium bicarbonate, penicillin (100 IU/mL), streptomycin (100 μg/mL), and glutamine (4 mM). The non-cancer MCF10A cell line was cultured in DMEM:F12 (1:1) cell culture media, 5% heat inactivated horse serum, supplemented with penicillin (50 IU/mL), streptomycin (50 μg/mL), 20 mM Hepes, L-glutamine (2 mM), epidermal growth factor (20 ng/mL), hydrocortisone (500 ng/mL), cholera toxin (100 ng/mL), and insulin (10 μg/mL). The AhR reporter cell line HT29-Lucia™ (Invivogen, United States) was maintained in DMEM supplemented with 10% heat inactivated FBS, L-glutamine (2 mM), penicillin (100 IU/mL), streptomycin (100 μg/mL), 100 μg/mL Normocin™, and 100 μg/mL of the selective antibiotic Zeocin™. All cell lines were purchased from the American Type Culture Collection (ATCC), except for A2780 and A431 which were from the European Collection of Authenticated Cell Cultures (ECACC), and SJ-G2 cell line which was from Dr Mary Danks, St Jude Children’s Research hospital, Memphis, TN.
(§3) Cells in logarithmic growth were transferred to 96-well plates. Cytotoxicity was determined by plating cells in duplicate in 100 μL medium at a density of 2,500–4,000 cells/well in 96 well plates. On day 0, (24 h after plating) when the cells were in logarithmic growth 100 μL medium with or without the test agent was added to each well. After 72 h drug exposure growth inhibitory effects were evaluated using the MTT (3-[4,5-dimethylthiazol-2-yl]-2,5-diphenyltetrazolium bromide) assay with absorbance read at 540 nm. An eight-point dose response curve was produced, using MS Excel software. From these dose-response curves, the GI50 value was calculated, representing the drug concentration at which cell growth is 50% inhibited based on the difference between the optical density values on day 0 and those at the end of drug exposure ([Bradshaw et al., 2008]; [Zhang et al., 2009]). Each data point was conducted in duplicate and the mean ± S.E.M. calculated from four to five replicates (n = 4 or 5), which were performed on separate occasions and separate cell line passages. Where shown, significant test results were determined using T-test analysis at p < 0.01 and p < 0.05 with a two tail distribution.

[2] = tested on: A431 (vulva/skin) cells; assay: MTT growth inhibition assay (72 h); details: A431, Skin (ER)
Text: as §1, §2, §3

[3] = tested on: BE2-C (neuronal) cells; assay: MTT growth inhibition assay (72 h); details: Neuron
Text: as §1, §2, §3

[4] = tested on: BT20 breast cancer cells; assay: MTT growth inhibition assay (72 h); details: BT20, Breast (TN)
Text: as §1, §2, §3

[5] = tested on: BT474 breast cancer cells; assay: MTT growth inhibition assay (72 h); details: BT474, Breast (ER/PR/HER2)
Text: as §1, §2, §3

[6] = tested on: Du145 (prostate) cells; assay: MTT growth inhibition assay (72 h)
Text: as §1, §2, §3

[7] = tested on: H460 (lung) cells; assay: MTT growth inhibition assay (72 h); details: H460, Lung (ER)
Text: as §1, §2, §3

[8] = tested on: HT29 (colorectal) cells; assay: MTT growth inhibition assay (72 h); details: HT29, Colon
Text: as §1, §2, §3

[9] = tested on: MCF-7 breast cancer cells; assay: MTT growth inhibition assay (72 h); details: MCF-7, Breast (ER)
Text: as §1, §2, §3

[10] = tested on: MCF10A normal breast cells; assay: MTT growth inhibition assay (72 h)
Text: as §1, §2, §3

[11] = tested on: MDA-MB-231 breast cancer cells; assay: MTT growth inhibition assay (72 h); details: MDA-MB-231, Breast (TN)
Text: as §1, §2, §3

[12] = tested on: MDA-MB-468 breast cancer cells; assay: MTT growth inhibition assay (72 h); details: MDA-MB-468, Breast (TN)
Text: as §1, §2, §3

[13] = tested on: MIA (pancreas) cells; assay: MTT growth inhibition assay (72 h)
Text: as §1, §2, §3

[14] = tested on: SJ-G2 (brain) cells; assay: MTT growth inhibition assay (72 h); details: SJ-G2, Brain (GBM)
Text: as §1, §2, §3

[15] = tested on: SKBR3 breast cancer cells; assay: MTT growth inhibition assay (72 h); details: SKBR3, Breast (HER2)
Text: as §1, §2, §3

[16] = tested on: U87 (brain) cells; assay: MTT growth inhibition assay (72 h); details: U87, Brain (GBM)
Text: as §1, §2, §3

[17] = tested on: ZR-75-1 breast cancer cells; assay: MTT growth inhibition assay (72 h); details: ZR-75-1, Breast (ER/PR)
Text: as §1, §2, §3

[18] = tested on: broad panel of cancer cell lines and non-cancer breast cell line MCF10A; assay: MTT growth inhibition: GI50 ranges and selectivity across the cell line panel; details: across the cell lines examined (Table 1)
Text: as §1, §2, §3

[19] = tested on: T47D breast cancer cells; assay: MTT growth inhibition assay (72 h); details: Breast (ER/PR)
Text: as §1, §2, §3

With “3-Nitro-7H-benzo[de]benzo[4,5]imidazo[2,1-a]isoquinolin-7-one (11a) and 4-nitro-7H-benzo[de]benzo[4,5]imidazo[2,1-a]isoquinolin-7-one (11b) [Compound 11]” the GI50 [1] was 0.01 ± 0.003 µM, the GI50 [2] was 0.088 ± 0.031 µM and the GI50 [3] was 0.74 ± 0.13 µM. It also gave a GI50 [4] of 0.0084 ± 0.004 µM, a GI50 [5] of 0.15 ± 0.053 µM and a GI50 [6] of 0.32 ± 0.049 µM. For the same substance, the GI50 [7] was 0.00019 ± 0.0001 µM, the GI50 [8] was 0.3 ± 0.11 µM and the GI50 [9] was 0.0065 ± 0.0038 µM. The GI50 [10] was 0.0031 ± 0.002 µM, the GI50 [11] was 2.1 ± 0.29 µM and the GI50 [12] was 0.0015 ± 0.0008 µM. For the same substance, the GI50 [13] was 1.4 ± 0.45 µM, the GI50 [14] was 0.61 ± 0.14 µM and the GI50 [15] was 0.036 ± 0.006 µM. For the same substance, the GI50 [16] was 0.55 ± 0.11 µM, the GI50 [17] was 0.0027 ± 0.0022 µM and the “fold more potent than head group substituted analogues 3, 4, 6, 7, 8 and 9” value [18] was greater than 10 fold.
With “7-Oxo-7H-benzo[de]benzo[4,5]imidazo[2,1-a]isoquinoline-10-carbonitrile (9a) and 7-oxo-7H-benzo[de]benzo[4,5]imidazo[2,1-a]isoquinoline-11-carbonitrile (9b) [Compound 9]” the GI50 [1] was 7 ± 0.64 µM, the GI50 [2] was 1.1 ± 0.1 µM and the GI50 [3] was greater than 50 µM. It also gave a GI50 [4] of 9.3 ± 8.4 µM, a GI50 [5] greater than 50 µM and a GI50 [6] of 45 ± 1.7 µM. For the same substance, the GI50 [7] was 41 ± 5.9 µM, the GI50 [8] was 44 ± 6.3 µM and the GI50 [9] was 25 ± 8.3 µM. For the same substance, the GI50 [10] was 7.8 ± 1.62 µM, the GI50 [11] was 38 ± 6 µM and the GI50 [12] was 0.074 ± 0.021 µM. It also gave a GI50 [13] of 41 ± 9.5 µM, a GI50 [14] of 26 ± 3.8 µM and a GI50 [15] of 0.27 ± 0.018 µM. For the same substance, the GI50 [19] was 4.2 ± 0.73 µM, the GI50 [16] was 43 ± 4 µM and the GI50 [17] was 0.089 ± 0.04 µM.
Work on “9-Methyl-7H-benzo[de]benzo[4,5]imidazo[2,1-a]isoquinolin-7-one (8a) and 12-methyl-7H-benzo[de]benzo[4,5]imidazo[2,1-a]isoquinolin-7-one (8b) [Compound 8]” yielded a GI50 [1] of 11 ± 0.58 µM, a GI50 [2] of 0.56 ± 0.14 µM and a GI50 [3] of 15 ± 10 µM. It also gave a GI50 [4] of 1.4 ± 0.8 µM, a GI50 [5] of 4.6 ± 2.7 µM and a GI50 [6] of 38 ± 6.9 µM. It also gave a GI50 [7] of 27 ± 6.7 µM, a GI50 [8] of 3.7 ± 0.69 µM and a GI50 [9] of 2.8 ± 0.61 µM. For the same substance, the GI50 [10] was 2 ± 1.3 µM, the GI50 [11] was 8.2 ± 3.3 µM and the GI50 [12] was 0.056 ± 0.024 µM. The GI50 [13] was 20 ± 10 µM, the GI50 [14] was 24 ± 8.4 µM and the GI50 [15] was 0.27 ± 0.027 µM. The GI50 [19] was 0.8 ± 0.11 µM, the GI50 [16] was 38 ± 2.5 µM and the GI50 [17] was 0.59 ± 0.38 µM.
Work on “10-Methyl-7H-benzo[de]benzo[4,5]imidazo[2,1-a]isoquinolin-7-one (7a) and 11-methyl-7H-benzo[de]benzo[4,5]imidazo[2,1-a]isoquinolin-7-one (7b) [Compound 7]” yielded a GI50 [1] of 5.2 ± 0.63 µM, a GI50 [2] of 4.8 ± 0.7 µM and a GI50 [3] of 4.9 ± 0.09 µM. The GI50 [4] was 5.2 ± 2 µM, the GI50 [5] was greater than 50 µM and the GI50 [6] was 37 ± 7.8 µM. It also gave a GI50 [7] of 45 ± 8 µM, a GI50 [8] of 5 ± 0.07 µM and a GI50 [9] of 3.6 ± 0.4 µM. For the same substance, the GI50 [10] was 4.7 ± 0.12 µM, the GI50 [11] was 25 ± 7.1 µM and the GI50 [12] was 0.35 ± 0.13 µM. The GI50 [13] was 8.1 ± 0.97 µM, the GI50 [14] was greater than 50 µM and the GI50 [15] was 1.2 ± 0.93 µM. The GI50 [19] was 3.1 ± 0.17 µM, the GI50 [16] was 17 ± 2.7 µM and the GI50 [17] was 0.19 ± 0.045 µM.
